From patent US10793542B2, “Hetroarylamine compounds for modulating the hedgehog pathway and preparing method and uses thereof” (DEVELOPMENT CENTER FOR BIOTECHNOLOGY, priority 2016, dated 2020) come the findings set out here.

Holding throughout (type): cell-based
In test [1] the test system is hedgehog pathway (pGL3-7xGli-Luciferase reporter in C3H10T1/2 cells). In words: Transient transfection of C3H10T1/2 and Gli-Luc reporter assay with SAG stimulation. Conditions: Mus musculus, C3H 10T1/2, SAG 20 nM, 48 hr, read-out: Inhibition of Gli-Luc expression [IC50. How it is done:
A cell-based screen for inhibitors of the hedgehog pathway was performed using a transient transfection system in C3H10T1/2 cells with pGL3-7xGli-Luciferase reporter plasmids C3H10T1/2 cells (ATCC, cat.#CCL-226) were seeded into 6-well plates at 8×10^4 cells/well in a BME medium containing 10% heat-inactivated FBS. Cells were transfected the next morning with 500 ng/well pGL3-7xGli-Luciferase reporter plasmids and 100 ng/well pRL-TK Renilla luciferase reporter plasmids (Promega)using GeneJuice transfection reagent (Novagene). After 24 h, transfected cells were collected by trypsin treatment and re-plated in 96-well plates in an RPMI medium containing 0.5% FBS with a density of 1.5×10^4 cells/well. Compounds were dissolved in DMSO with serial dilutions and were then added to the assay plate. SAG (Hh-Ag 1.3) (Santa Cruz) was added to the assay plated for a final concentration 20 nM. The assay plates were incubated at 37° C. for 48 hr.
(§1) Firefly luciferase and Renilla luciferase activity was determined using the Dual-Glo Luciferase reporter assay system (Promega) with a Victor3 plate reader (PerkinElmer Life Sciences). Firefly luciferase readings were normalized to Renilla luciferase to correct for transfection efficiency. Luminance reading for the C3H10T1/2-Gli-Luc assay was normalized based on DMSO control with SAG stimulation (100% pathway activity) and without SAG stimulation (0% pathway activity). IC50 values, defined as the inflection point of the logistic curve, were determined by nonlinear regression using the Prism 5 software (GraphPad).

Test [2] deals with T1, Smo D473H mutant (Homo sapiens, UniProt Q99835, D473H).
T1 construct: expressed in transfected cells; host or cells: C3H10T1/2 cells (ATCC CCL-226), transient transfection with pLPCX-SMO-D473H
In words: Reporter assay of C3H10T1/2-Gli-Luc cells transfected with Smo D473H mutant, without SAG. Particulars: C3H10T1/2 cells transfected with pLPCX-SMO-D473H, no SAG, 48 hr; read-out: Inhibition of C3H10T1/2-Gli-Luc-Smo-D473H [IC50. The protocol: (§2) A transient transfection system with a Smo wild type or a Smo D473H mutant was also used for compound screening. For the SMO inhibition experiments, cells were transfected with an additional 500 ng/well of wild-type or D473H-mutant type SMO construct (pLPCX-SMO or pLPCX-SMO-D473H). After 24 h, transfected cells were collected by trypsin treatment and re-plated in 96-well plates in an RPMI medium containing 0.5% FBS with a density of 1.5×10^4 cells/well. Compounds were dissolved in DMSO with serial dilutions and were then added to the assay plate. The assay plates were incubated at 37° C. for 48 hr.
as §1
(§3) The reporter assay of C3H10T1/2-Gli-Luc cells transfected with a wild-type, D473H mutant Smo mutant was carried out with the same protocol but without SAG stimulation. Luminance reading for the SMO inhibition experiments assay was normalized based on DMSO control (100% of the pathway activity) and a known Smo antagonist (ALLO-2 at 10 μM, 0% of the pathway activity).

The target of test [3] is T2, Smo wild type (Homo sapiens, UniProt Q99835).
T2 construct: expressed in transfected cells; host or cells: C3H10T1/2 cells (ATCC CCL-226), transient transfection with pLPCX-SMO
As to the kind of experiment: Reporter assay of C3H10T1/2-Gli-Luc cells transfected with wild-type Smo, without SAG. Particulars: C3H10T1/2 cells transfected with pLPCX-SMO, no SAG, 48 hr; read-out: Inhibition of C3H10T1/2-Gli-Luc-Smo-WT [IC50. The protocol:
as §2, §1, §3
Background: In a reporter assay the amount or activity of a reporter protein is the signal.

T1 sequence (Q99835 28-787 D473H): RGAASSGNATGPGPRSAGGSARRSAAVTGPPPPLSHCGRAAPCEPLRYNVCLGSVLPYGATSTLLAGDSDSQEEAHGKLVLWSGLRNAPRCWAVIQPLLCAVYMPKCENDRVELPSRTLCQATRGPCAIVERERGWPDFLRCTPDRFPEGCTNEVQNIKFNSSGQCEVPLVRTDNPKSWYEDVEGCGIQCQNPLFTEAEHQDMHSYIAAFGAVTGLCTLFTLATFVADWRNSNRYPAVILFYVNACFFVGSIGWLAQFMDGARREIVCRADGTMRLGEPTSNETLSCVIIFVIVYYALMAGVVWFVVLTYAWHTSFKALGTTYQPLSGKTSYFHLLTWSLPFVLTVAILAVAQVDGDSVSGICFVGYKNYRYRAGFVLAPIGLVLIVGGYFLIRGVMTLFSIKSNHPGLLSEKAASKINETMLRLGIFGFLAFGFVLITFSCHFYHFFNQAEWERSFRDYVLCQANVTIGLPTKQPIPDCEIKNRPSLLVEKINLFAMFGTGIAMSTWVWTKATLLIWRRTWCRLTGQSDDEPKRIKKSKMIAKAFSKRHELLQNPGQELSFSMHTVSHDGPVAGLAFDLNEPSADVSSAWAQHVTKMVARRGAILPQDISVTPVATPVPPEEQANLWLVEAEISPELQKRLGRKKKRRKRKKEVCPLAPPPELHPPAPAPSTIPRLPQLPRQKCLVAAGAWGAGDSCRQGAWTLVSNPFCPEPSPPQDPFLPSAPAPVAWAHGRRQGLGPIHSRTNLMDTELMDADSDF
T2 sequence (Q99835 28-787): as the sequence (Q99835 28-787 D473H) above, with H446D counted along it

As for `CSc1cnc(Nc2ccc(C(=O)Nc3cc(CN4CCOCC4)ccc3C)cc2)nc1-c1ccccc1` [Compound 20, N-(2-Methyl-5-morpholin-4-ylmethyl-phenyl)-4-(5-methylsulfanyl-4-phenyl-pyrimidin-2-ylamino)-benzamide], the IC50 in test [1] is under 0.1 µM; in test [2] it was 0.1 to 1 µM; in test [3], under 0.1 µM.
Take `COc1cnc(Nc2ccc(C(=O)Nc3cc(CN4CCNCC4)ccc3C)cc2F)nc1-c1ccc(F)cc1` [Compound 80, 3-Fluoro-4-[4-(4-fluoro-phenyl)-5-methoxy-pyrimidin-2-ylamino]-N-(2-methyl-5-piperazin-1-ylmethyl-phenyl)-benzamide]: the IC50 in test [1] is under 0.1 µM; in test [2], 0.1 to 1 µM; in test [3], 0.1 to 1 µM.
On to `CSc1cnc(Nc2ccc(C(=O)Nc3c(C)cccc3C)cc2)nc1-c1cccnc1F` [Compound 6, N-(2,6-Dimethyl-phenyl)-4-[4-(2-fluoro-pyridin-3-yl)-5-methylsulfanyl-pyrimidin-2-ylamino]-benzamide], for which the IC50 in test [1], in test [2] and in test [3] was under 0.1 µM throughout.
Take `CSc1cnc(Nc2ccc(C(=O)Nc3cc(CN4CCN(C)CC4)ccc3C)cc2)nc1-c1ccc(OC(F)(F)F)cc1` [Compound 37, N-[2-Methyl-5-(4-methyl-piperazin-1-ylmethyl)-phenyl]-4-[5-methylsulfanyl-4-(4-trifluoromethoxy-phenyl)-pyrimidin-2-ylamino]-benzamide]: the results for the IC50 in test [1], in test [2] and in test [3] were under 0.1 µM, 0.1 to 1 µM and under 0.1 µM, respectively.
With `CSc1cnc(Nc2ccc(C(=O)Nc3ccccc3)cc2)nc1-c1cccnc1F` [Compound 5, 4-[4-(2-Fluoro-pyridin-3-yl)-5-methylsulfanyl-pyrimidin-2-ylamino]-N-phenyl-benzamide], the IC50 in test [1], in test [2] and in test [3] was 0.1 to 1 µM throughout.
Turning to `CSc1cnc(Nc2ccc(C(=O)Nc3ccccc3C)cc2)nc1-c1ccc(OC(F)(F)F)cc1` [Compound 23, 4-[5-Methylsulfanyl-4-(4-trifluoromethoxy-phenyl)-pyrimidin-2-ylamino]-N-o-tolyl-benzamide], the IC50 in test [1] is 0.1 to 1 µM; in test [2], 0.1 to 1 µM; in test [3] it was under 0.1 µM.
Regarding `CSc1cnc(Nc2ccc(C(=O)Nc3cc(CN4CCOCC4)ccc3C)cc2)nc1-c1ccc(C(F)(F)F)nc1` [Compound 68, N-(2-Methyl-5-morpholin-4-ylmethyl-phenyl)-4-[5-methylsulfanyl-4-(6-trifluoromethyl-pyridin-3-yl)-pyrimidin-2-ylamino]-benzamide], the IC50 in test [1] was 0.1 to 1 µM; in test [2], 0.1 to 1 µM; in test [3], under 0.1 µM.
For `CSc1cnc(Nc2ccc(C(=O)Nc3ccccc3)cc2)nc1-c1ccc(C#N)cc1` [Compound 3, 4-[4-(4-Cyano-phenyl)-5-methylsulfanyl-pyrimidin-2-ylamino]-N-phenyl-benzamide], the IC50 in test [1], in test [2] and in test [3] was 0.1 to 1 µM in each case.
In the case of `CSc1cnc(Nc2ccc(C(=O)Nc3c(C)cccc3C)cc2)nc1-c1ccc(OC(F)(F)F)cc1` [Compound 1, N-(2,6-Dimethyl-phenyl)-4-[5-methylsulfanyl-4-(4-trifluoromethoxy-phenyl) -pyrimidin-2-ylamino]-benzamide], the IC50 is 0.1 to 1 µM in test [1], over 1 µM in test [2] and 0.1 to 1 µM in test [3].
Regarding `CSc1cnc(Nc2ccc(C(=O)Nc3cc(CN4CCOCC4)ccc3F)cc2F)nc1-c1ccc(F)cc1` [Compound 57, 3-Fluoro-N-(2-fluoro-5-morpholin-4-ylmethyl-phenyl)-4-[4-(4-fluoro-phenyl)-5-methylsulfanyl-pyrimidin-2-ylamino]-benzamide], the IC50 was under 0.1 µM in test [1], 0.1 to 1 µM in test [2] and under 0.1 µM in test [3].
Consider `CSc1cnc(Nc2ccc(C(=O)Nc3c(F)cccc3F)cc2)nc1-c1cccnc1` [Compound 10, N-(2,6-Difluoro-phenyl)-4-(5-methylsulfanyl-4-pyridin-3-yl-pyrimidin-2-ylamino)-benzamide], for which the IC50 in test [1], in test [2] and in test [3] was 0.1 to 1 µM throughout.
For the compound `CCOc1cnc(Nc2ccc(C(=O)Nc3cc(CN4CCOCC4)ccc3C)cc2)nc1-c1ccc(OC(F)(F)F)cc1` [Compound 72, 4-[5-Ethoxy-4-(4-trifluoromethoxy-phenyl)-pyrimidin-2-ylamino]-N-(2-methyl-5-morpholin-4-ylmethyl-phenyl)-benzamide], the IC50 in test [1], in test [2] and in test [3] was under 0.1 µM each time.
With `CSc1cnc(Nc2ccc(C(=O)Nc3c(F)cccc3F)cc2)nc1-c1cccnc1F` [Compound 8, N-(2,6-Difluoro-phenyl)-4-[4-(2-fluoro-pyridin-3-yl)-5-methylsulfanyl-pyrimidin-2-ylamino]-benzamide], the IC50 in test [1], in test [2] and in test [3] was 0.1 to 1 µM in each case.
On to `CSc1cnc(Nc2ccc(C(=O)Nc3cc(CN4CCOCC4)ccc3C)cc2)nc1-c1ccc(C(F)(F)F)cc1` [Compound 27, N-(2-Methyl-5-morpholin-4-ylmethyl-phenyl)-4-[5-methylsulfanyl-4-(4-tiifluoromethyl-phenyl)-pyrimidin-2-ylamino]-benzamide], for which the IC50 is under 0.1 µM in test [1], 0.1 to 1 µM in test [2] and under 0.1 µM in test [3].
`CSc1cnc(Nc2ccc(C(=O)Nc3c(C)cccc3C)cc2)nc1-c1ccc(C#N)cc1` [Compound 2, 4-[4-(4-Cyano-phenyl)-5-methylsulfanyl-pyrimidin-2-ylamino]-N-(2,6-dimethyl-phenyl)-benzamide]: the IC50 in test [1], in test [2] and in test [3] was 0.1 to 1 µM throughout.
For the compound `CSc1cnc(Nc2ccc(C(=O)Nc3cccc(CN4CCOCC4)c3)cc2)nc1-c1ccc(F)cc1` [Compound 43, 4-[4-(4-Fluoro-phenyl)-5-methylsulfanyl-pyrimidin-2-ylamino]-N-(3-morpholin-4-ylmethyl-phenyl)-benzamide], the IC50 was under 0.1 µM in test [1], 0.1 to 1 µM in test [2] and under 0.1 µM in test [3].
As for `COc1ccc(CN2CCOCC2)cc1NC(=O)c1ccc(Nc2ncc(SC)c(-c3ccc(OC(F)(F)F)cc3)n2)c(F)c1` [Compound 58, 3-Fluoro-N-(2-methoxy-5-morpholin-4-ylmethyl-phenyl)-4-[5-methylsulfanyl-4-(4-trifluoromethoxy-phenyl)-pyrimidin-2-ylamino]-benzamide], the figures for the IC50 in test [1], in test [2] and in test [3] were under 0.1 µM, 0.1 to 1 µM and under 0.1 µM, respectively.
Turning to `CSc1cnc(Nc2ccc(C(=O)Nc3ccccc3C)cc2F)nc1-c1cccnc1F` [Compound 16, 3-Fluoro-4-[4-(2-fluoro-pyridin-3-yl)-5-methylsulfanyl-pyrimidin-2-ylamino]-N-o-tolyl-benzamide], the IC50 in test [1], in test [2] and in test [3] was 0.1 to 1 µM each time.
On to `CSc1cnc(Nc2ccc(C(=O)Nc3cc(CN4CCOCC4)ccc3C)cc2)nc1-c1ccc(C#N)cc1` [Compound 33, 4-[4-(4-Cyano-phenyl)-5-methylsulfanyl-pyrimidin-2-ylamino]-N-(2-methyl-5-morpholin-4-ylmethyl-phenyl)-benzamide], for which the IC50 in test [1] was under 0.1 µM; in test [2], 0.1 to 1 µM; in test [3], under 0.1 µM.
As for `CSc1cnc(Nc2ccc(C(=O)Nc3c(C)cccc3C)cc2F)nc1-c1cccnc1F` [Compound 12, N-(2,6-Dimethyl-phenyl)-3-fluoro-4-[4-(2-fluoro-pyridin-3-yl)-5-methylsulfanyl-pyrimidin-2-ylamino]-benzamide], the IC50 in test [1], in test [2] and in test [3] was 0.1 to 1 µM throughout.
